pKd: −log10 of the molar value.
Molecular target: T1, Pantothenate synthetase (Mycobacterium tuberculosis (strain ATCC 25618 / H37Rv), UniProt P9WIL5)
T1 sequence (P9WIL5 whole entry): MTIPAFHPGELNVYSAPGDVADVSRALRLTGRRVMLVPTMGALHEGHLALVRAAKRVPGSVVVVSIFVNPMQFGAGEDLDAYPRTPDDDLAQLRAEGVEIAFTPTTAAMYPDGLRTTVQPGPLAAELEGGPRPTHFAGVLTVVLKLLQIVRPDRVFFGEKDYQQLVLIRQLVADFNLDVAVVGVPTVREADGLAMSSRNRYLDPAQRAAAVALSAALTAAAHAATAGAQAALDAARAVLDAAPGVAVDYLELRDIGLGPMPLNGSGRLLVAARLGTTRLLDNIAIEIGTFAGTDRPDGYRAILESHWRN
Experiment: Binding Assay
Conditions: pH 7.6; 25 °C
Method: The dissociation constants and enthalpies was determined by isothermal titration calorimety.

## Nc1ncnc2c1ncn2[C@@H]1O[C@H](CSSCC(O)CO)[C@@H](O)[C@H]1O (stereo partly specified) [5'-Deoxy-5'-thiodenosine scaffold, 14c]
  pKd: 3.24

— BindingDB's records for doi:10.1002/cbic.200900537 (University of Cambridge, 2009)
